Results published in patent EP0427405A1 (priority 1989, dated 1991).

Key:
[1] = test system: Phaffia rhodozyma ENZA-A169; format: cell-based
[2] = test system: Phaffia rhodozyma ENZA-M10; format: cell-based

CSC [DMS, dimethylsulphide]
kill curve, kinetics of death [1]: follows 1st order kinetics
kill curve, speed of killing [1]: killed much more quickly than E1
kill curve, shape [2]: definite "bump"
